Laboratory results as given in ChEMBL document CHEMBL1150336, “Synthesis and antibacterial activity of novel pyrido[1,2,3-de][1,4]benzoxazine-6-carboxylic acid derivatives carrying the 3-cyclopropylaminomethyl-4-substituted-1-pyrrolidinyl group as a C-10 substituent” (J Med Chem, 2008).
Values after ≈ are worked out from the molar mass of the structure shown.

Experiments:
[1] = test system: Klebsiella pneumoniae; experiment: Antibacterial activity against Klebsiella pneumoniae IID5209 after 18 hrs by agar dilution method; type: functional
[2] = test system: Escherichia coli; experiment: Antibacterial activity against Escherichia coli NIHJ JC2 after 18 hrs by agar dilution method; type: functional; settings: NIHJ JC2, 18 h
[3] = test system: Enterococcus faecalis; experiment: Antibacterial activity against Enterococcus faecalis IID682 after 18 hrs by agar dilution method; type: functional
[4] = test system: Streptococcus pyogenes; experiment: Antibacterial activity against Streptococcus pyogenes IID692 after 18 hrs by agar dilution method; type: functional
[5] = test system: Staphylococcus aureus; experiment: Antibacterial activity against Staphylococcus aureus Smith after 18 hrs by agar dilution method; type: functional
[6] = test system: Haemophilus influenzae; experiment: Antibacterial activity against Haemophilus influenzae IID983 after 18 hrs by agar dilution method; type: functional
[7] = test system: Streptococcus pneumoniae; experiment: Antibacterial activity against Streptococcus pneumoniae type 3 after 18 hrs by agar dilution method; type: functional
[8] = test system: Pseudomonas aeruginosa; experiment: Antibacterial activity against Pseudomonas aeruginosa IID1210 after 18 hrs by agar dilution method; type: functional
[9] = test system: Staphylococcus aureus; experiment: Antibacterial activity against quinoline-resistant Staphylococcus aureus OITI MR1-1002 isolate after 18 hrs by agar dilution method; type: functional
[10] = test system: Streptococcus pneumoniae; experiment: Antibacterial activity against quinoline-resistant Streptococcus pneumoniae no.55 isolate after 18 hrs by agar dilution method; type: functional
[11] = test system: Enterococcus faecalis; experiment: Antibacterial activity against quinoline-resistant Enterococcus faecalis No.15 isolate after 18 hrs by agar dilution method; type: functional
[12] = test system: Enterococcus faecalis; experiment: Antibacterial activity against vancomycin-resistant Enterococcus faecalis KU1856 after 18 hrs by agar dilution method; type: functional
[13] = test system: Enterococcus faecalis; experiment: Antibacterial activity against vancomycin-resistant Enterococcus faecalis KU1866 after 18 hrs by agar dilution method; type: functional
[14] = test system: Mus musculus; experiment: Toxicity in ICR mouse assessed as mortality administered as single dose at 100 mg/kg, iv after 7 days; type: organism-based; set-up: dose 100 mg/kg, route intravenous; settings: in vivo, 168 h
[15] = test system: Mus musculus; experiment: Toxicity in ICR mouse assessed as mortality administered as single dose at 200 mg/kg, iv after 7 days; type: organism-based; set-up: dose 200 mg/kg, route intravenous; settings: in vivo, 168 h
[16] = test system: Mus musculus; experiment: Toxicity in intracerebroventricularly dosed ICR mouse assessed as induction of convulsion after 2 hrs in absence of fenbufen; type: organism-based; settings: in vivo, icv_or_intrathecal
[17] = test system: Mus musculus; experiment: Toxicity in intracerebroventricularly dosed ICR mouse assessed as induction of convulsion after 2 hrs in presence of fenbufen; type: organism-based; settings: in vivo, icv_or_intrathecal
[18] = test system: Mus musculus; experiment: Phototoxicity in orally dosed ICR mouse assessed as skin erythema after 72 hrs; type: organism-based; settings: in vivo, po
[19] = target: T1, DNA gyrase (Staphylococcus aureus, UniProt P0A0K8+P20831); experiment: Inhibition of Staphylococcus aureus MS5935 wild type DNA gyrase-mediated supercoiling activity; type: protein-complex assay
[20] = target: T1, DNA gyrase; experiment: Inhibition of quinoline-resistant Staphylococcus aureus MS5935 DNA gyrase-mediated supercoiling activity; type: protein-complex assay
[21] = Inhibition of Staphylococcus aureus MS5935 wild type topoisomerase 4-mediated decatenation activity
[22] = Inhibition of quinoline-resistant Staphylococcus aureus MS5935 topoisomerase 4-mediated decatenation activity
[23] = test system: Staphylococcus aureus; experiment: Antibacterial activity against quinoline-resistant wild type Staphylococcus aureus MS5935 after 18 hrs by agar dilution method; type: functional
[24] = test system: Staphylococcus aureus; experiment: Antibacterial activity against quinoline-resistant Staphylococcus aureus MS5935 containing single grlA mutation after 18 hrs by agar dilution method; type: functional
[25] = test system: Staphylococcus aureus; experiment: Antibacterial activity against quinoline-resistant Staphylococcus aureus MS5935 containing single grlA and single gyrA mutation after 18 hrs by agar dilution method; type: functional
[26] = test system: Staphylococcus aureus; experiment: Antibacterial activity against quinoline-resistant Staphylococcus aureus MS5935 containing double grlA and single gyrA mutation after 18 hrs by agar dilution method; type: functional
[27] = test system: Staphylococcus aureus; experiment: Antibacterial activity against quinoline-resistant Staphylococcus aureus MS5935 containing double grlA and double gyrA mutation after 18 hrs by agar dilution method; type: functional
[28] = test system: Staphylococcus aureus; experiment: Antibacterial activity against Staphylococcus aureus Smith infected in subcutaneously dosed ICR mouse administered 1 hr after bacterial challenge measured at 7 days post infection; type: functional; settings: sc
[29] = test system: Staphylococcus aureus; experiment: Antibacterial activity against Staphylococcus aureus Smith infected in po dosed ICR mouse administered 1 hr after bacterial challenge measured at 7 days post infection; type: functional
[30] = test system: Streptococcus pneumoniae; experiment: Antibacterial activity against Streptococcus pneumoniae type 3 infected in subcutaneously dosed ICR mouse administered 1 hr after bacterial challenge measured at 7 days post infection; type: functional; settings: sc
[31] = test system: Streptococcus pneumoniae; experiment: Antibacterial activity against Streptococcus pneumoniae type 3 infected in po dosed ICR mouse administered 1 hr after bacterial challenge measured at 7 days post infection; type: functional

T1 sequence (P0A0K8 whole entry): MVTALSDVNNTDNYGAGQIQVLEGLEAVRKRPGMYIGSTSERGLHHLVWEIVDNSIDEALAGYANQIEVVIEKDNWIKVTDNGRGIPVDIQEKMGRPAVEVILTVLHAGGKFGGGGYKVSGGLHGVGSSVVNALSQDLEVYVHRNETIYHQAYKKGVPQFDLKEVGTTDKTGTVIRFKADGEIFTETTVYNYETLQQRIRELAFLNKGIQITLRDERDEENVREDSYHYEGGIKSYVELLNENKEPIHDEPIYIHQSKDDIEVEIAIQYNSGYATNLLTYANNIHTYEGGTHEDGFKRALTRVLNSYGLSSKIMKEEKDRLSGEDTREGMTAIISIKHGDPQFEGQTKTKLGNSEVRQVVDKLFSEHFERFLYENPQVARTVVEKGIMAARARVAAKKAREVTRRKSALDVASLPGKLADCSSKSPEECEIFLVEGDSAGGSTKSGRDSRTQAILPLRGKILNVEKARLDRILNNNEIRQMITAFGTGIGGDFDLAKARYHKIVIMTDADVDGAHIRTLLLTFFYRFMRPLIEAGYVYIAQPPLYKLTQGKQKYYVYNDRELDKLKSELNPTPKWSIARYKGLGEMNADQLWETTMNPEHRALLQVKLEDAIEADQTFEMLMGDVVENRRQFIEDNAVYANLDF
T1 sequence (P20831 whole entry): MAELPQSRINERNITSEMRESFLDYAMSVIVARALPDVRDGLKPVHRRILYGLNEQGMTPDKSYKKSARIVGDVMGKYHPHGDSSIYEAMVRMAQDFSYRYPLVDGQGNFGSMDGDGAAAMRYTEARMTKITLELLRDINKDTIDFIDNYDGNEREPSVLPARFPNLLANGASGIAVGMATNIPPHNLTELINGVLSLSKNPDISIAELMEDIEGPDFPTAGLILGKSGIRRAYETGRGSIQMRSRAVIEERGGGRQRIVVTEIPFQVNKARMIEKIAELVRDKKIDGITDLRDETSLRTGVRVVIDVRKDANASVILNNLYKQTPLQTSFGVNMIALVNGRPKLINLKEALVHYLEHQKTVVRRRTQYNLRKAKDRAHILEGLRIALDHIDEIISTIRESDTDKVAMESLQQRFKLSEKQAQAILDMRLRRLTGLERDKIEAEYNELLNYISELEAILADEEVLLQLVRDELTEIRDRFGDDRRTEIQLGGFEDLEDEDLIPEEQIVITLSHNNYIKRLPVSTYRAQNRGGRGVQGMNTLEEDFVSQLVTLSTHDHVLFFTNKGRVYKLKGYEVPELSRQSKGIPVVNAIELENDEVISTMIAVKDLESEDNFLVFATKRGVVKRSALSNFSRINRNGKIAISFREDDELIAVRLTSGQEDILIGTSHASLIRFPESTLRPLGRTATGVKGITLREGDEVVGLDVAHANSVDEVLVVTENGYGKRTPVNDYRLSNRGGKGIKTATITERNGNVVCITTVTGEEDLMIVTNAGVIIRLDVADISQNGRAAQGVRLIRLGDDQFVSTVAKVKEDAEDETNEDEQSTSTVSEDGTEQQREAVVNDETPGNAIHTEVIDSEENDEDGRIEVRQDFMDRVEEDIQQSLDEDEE

Structure (SMILES) | MIC [1] [µg/mL] | MIC [2] [ng/mL] | MIC [3] [µg/mL] | MIC [4] [µg/mL] | MIC [5] [µg/mL] | MIC [6] [ng/mL] | MIC [7] [µg/mL] | MIC [8] [µg/mL] | MIC [9] [µg/mL] | MIC [10] [µg/mL] | MIC [11] [µg/mL] | MIC [12] [µg/mL] | MIC [13] [µg/mL] | Activity [14] | Activity [15] | Activity [16] [µg] | Activity [17] [µg] | Activity [18] | IC50 [19] [nM] | IC50 [20] [µM] | other results
NC1CCN(c2c(F)cc3c(=O)c(C(=O)O)cn(C4CC4)c3c2Cl)C1 (configuration not stated) [CLINAFLOXACIN] | 0.004 (≈ 0.0109 µM) | 2 (≈ 0.00547 µM) | 0.063 (≈ 0.172 µM) | 0.063 (≈ 0.172 µM) | 0.016 (≈ 0.0437 µM) | ≤ 1 | 0.031 (≈ 0.0847 µM) | 0.125 (≈ 0.342 µM) | 8 (≈ 21.9 µM) | 0.5 (≈ 1.37 µM) | 8 (≈ 21.9 µM) | 2 (≈ 5.47 µM) | 4 (≈ 10.9 µM) | Non-toxic | Non-toxic | 10 | 5 | Toxic | 3140 | 44.3 | IC50 [21]: 1.89 µg/mL (≈ 5.17 µM); IC50 [22]: 13.9 µg/mL (≈ 38 µM); MIC [23]: 0.016 µg/mL (≈ 0.0437 µM); MIC [24]: 0.063 µg/mL (≈ 0.172 µM); MIC [25]: 0.5 µg/mL (≈ 1.37 µM); MIC [26]: 2 µg/mL (≈ 5.47 µM); MIC [27]: 8 µg/mL (≈ 21.9 µM); ED50 [28]: 0.35 mg/kg; ED50 [29]: 2.1 mg/kg; ED50 [30]: 45 mg/kg; ED50 [31]: 15 mg/kg
O=C(O)c1cn2c3c(c(N4C[C@H](CNC5CC5)[C@H](F)C4)c(F)cc3c1=O)OC[C@@H]2CF | 0.031 (≈ 0.0709 µM) | 8 (≈ 0.0183 µM) | 0.063 (≈ 0.144 µM) | 0.031 (≈ 0.0709 µM) | 0.008 (≈ 0.0183 µM) | 4 (≈ 0.00914 µM) | 0.016 (≈ 0.0366 µM) | 2 (≈ 4.57 µM) | 1 (≈ 2.29 µM) | 0.25 (≈ 0.572 µM) | 1 (≈ 2.29 µM) | 0.5 (≈ 1.14 µM) | 0.5 (≈ 1.14 µM) | Non-toxic | Non-toxic | > 40 | > 40 | Non-toxic | 2420 | 31.1 | IC50 [21]: 1.27 µg/mL (≈ 2.9 µM); IC50 [22]: 7 µg/mL (≈ 16 µM); MIC [23]: 0.016 µg/mL (≈ 0.0366 µM); MIC [24]: 0.031 µg/mL (≈ 0.0709 µM); MIC [25]: 0.25 µg/mL (≈ 0.572 µM); MIC [26]: 0.5 µg/mL (≈ 1.14 µM); MIC [27]: 4 µg/mL (≈ 9.14 µM); ED50 [28]: 0.12 mg/kg; ED50 [29]: 0.5 mg/kg; ED50 [30]: 2.9 mg/kg; ED50 [31]: 4 mg/kg
